Experimental data: publication PMC4232212 (Clinical cancer research : an official journal of the …, 2009)

How the values were obtained:
[1] = target: T1, CXCR1 (Homo sapiens, UniProt P25024); experiment: Ki calculated from IC50 by the Cheng-Prusoff equation; type: binding; conditions: read-out: KiCXCR1 (nmol/L)
T1 sequence (P25024 1-350): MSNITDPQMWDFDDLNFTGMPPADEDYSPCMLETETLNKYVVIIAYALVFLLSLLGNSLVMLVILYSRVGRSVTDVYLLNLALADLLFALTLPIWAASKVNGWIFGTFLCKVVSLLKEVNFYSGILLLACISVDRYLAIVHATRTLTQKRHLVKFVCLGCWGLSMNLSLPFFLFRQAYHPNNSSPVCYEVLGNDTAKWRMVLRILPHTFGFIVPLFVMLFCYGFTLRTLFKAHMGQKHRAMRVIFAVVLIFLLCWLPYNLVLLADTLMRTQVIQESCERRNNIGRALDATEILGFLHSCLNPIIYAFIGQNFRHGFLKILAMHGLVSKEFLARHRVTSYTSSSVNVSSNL

[2] = target: T2, CXCR2 (Homo sapiens, UniProt P25025); experiment: as above; type: binding; conditions: read-out: KiCXCR2 (nmol/L)
T2 sequence (P25025 1-360): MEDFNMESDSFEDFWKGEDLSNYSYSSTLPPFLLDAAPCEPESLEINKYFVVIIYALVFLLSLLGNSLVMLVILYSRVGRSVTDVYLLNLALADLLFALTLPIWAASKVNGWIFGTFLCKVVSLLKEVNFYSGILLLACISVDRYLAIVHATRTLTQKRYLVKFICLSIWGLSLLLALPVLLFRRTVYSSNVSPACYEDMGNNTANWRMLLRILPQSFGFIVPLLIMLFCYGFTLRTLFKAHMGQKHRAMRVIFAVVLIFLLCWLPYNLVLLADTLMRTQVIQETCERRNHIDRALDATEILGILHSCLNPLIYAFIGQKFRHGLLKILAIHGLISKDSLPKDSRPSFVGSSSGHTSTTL

- Ki [1]: 7 nmol/L
- Ki [2]: 0.17 nmol/L
Substance: SCH-479833
